One test concerns the target T1, human FPRL2 (Homo sapiens, UniProt P25089).
T1 construct: expressed in transfected cells; host or cells: HEK293 (HEK293-hFPRL2-Gα16)
T1 sequence (P25089 1-353): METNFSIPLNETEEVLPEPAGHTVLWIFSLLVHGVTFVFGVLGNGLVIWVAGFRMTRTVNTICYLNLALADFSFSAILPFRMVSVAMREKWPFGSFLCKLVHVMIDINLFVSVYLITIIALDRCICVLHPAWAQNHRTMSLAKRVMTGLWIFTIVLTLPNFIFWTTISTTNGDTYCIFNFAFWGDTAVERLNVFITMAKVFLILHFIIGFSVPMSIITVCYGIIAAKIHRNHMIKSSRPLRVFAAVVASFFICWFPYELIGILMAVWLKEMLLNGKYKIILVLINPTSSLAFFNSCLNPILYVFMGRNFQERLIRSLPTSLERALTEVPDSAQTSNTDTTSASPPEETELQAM
Nature of the test: Intracellular calcium measurements (FLIPR), agonistic activity in HEK293-hFPRL2-Gα16 cells. The settings on record: Fluo-4 calcium FLIPR, normalized to GLY14-Humanin 100 nM. The class given is cell-based. The essentials: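 Peak values after baseline subtraction are expressed relative to 100 nM Gly14-Humanin; compounds diluted in assay buffer from 10 mM DMSO stocks.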
(Calcium assays in cells follow changes in intracellular calcium, usually with a dye or a luminescent sensor.)

The next test concerns the target T2, human ALX receptor (Homo sapiens, UniProt P25090).
T2 construct: expressed in transfected cells; host or cells: HEK293 (HEK293-hALXR-Gα16)
T2 sequence (P25090 1-351): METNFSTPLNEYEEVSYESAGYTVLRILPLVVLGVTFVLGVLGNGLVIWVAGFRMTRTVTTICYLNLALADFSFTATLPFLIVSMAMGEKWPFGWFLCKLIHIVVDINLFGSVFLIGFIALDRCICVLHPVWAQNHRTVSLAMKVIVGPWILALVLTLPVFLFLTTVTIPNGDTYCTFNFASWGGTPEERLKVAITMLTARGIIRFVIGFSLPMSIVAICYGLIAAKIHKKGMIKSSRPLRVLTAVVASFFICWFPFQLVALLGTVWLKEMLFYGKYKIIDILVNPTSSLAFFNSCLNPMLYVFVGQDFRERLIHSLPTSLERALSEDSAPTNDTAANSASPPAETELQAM
Put plainly: Intracellular calcium measurements (FLIPR), agonistic activity in HEK293-hALXR-Gα16 cells. The class given is cell-based. The settings on record: Fluo-4 calcium FLIPR, normalized to WKYMVm 10 nM. The essentials:
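HEK293 cells expressing hALXR and Gα16 were loaded with 1 μM Fluo-4 AM and 20 mM HEPES for 60 min at 37°C, then exposed to serially diluted compound. FLIPR fluorescence was read at ex 488/em 540 nm. Baseline-subtracted peak responses were normalized to 10 nM WKYMVm.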

Molecules are shown by their SMILES.

`O=C(NCCn1cncn1)[C@H]1[C@H](C(=O)Nc2ccc(Br)cc2)[C@@H]2C=C[C@H]1C21CC1` (racemic) [Example 49, (5R*)—N^5-(4-Bromophenyl)-(6R*)—N^6-(2-1H-[1,2,4]-triazol-1-yl-ethyl)-(4S*,7R*)-[4,7-ethenylene-spiro[2.4]heptane]-5,6-dicarboxamide]: the 50% effective concentration (EC50) came to 1510 nM on human FPRL2 and 12 nM on human ALX receptor.
Turning to `O=C(NC1CNC1)[C@H]1[C@H](C(=O)Nc2ncc(Br)s2)[C@@H]2CC[C@H]1C21CC1` [Example 419, (5R)—N^5-(5-Bromothiazol-2-yl)-(6R)—N^6-(azetidin-3-yl)-(4S,7R)-[4,7-ethylene-spiro[2.4]heptane]-5,6-dicarboxamide], the EC50 was 2290 nM on human FPRL2 and 57 nM at human ALX receptor.
As to `O=C(NCCCCN1CCCC1)[C@H]1[C@H](C(=O)NCc2cc(F)c(Br)cc2F)[C@@H]2C=C[C@H]1C21CC1` [Example 329, (5R)—N^5-(4-Bromo-2,5-difluorophenyl-methyl)-(6R)—N^6-(4-pyrrolidino-butyl)-(4S,7R)-[4,7-ethenylene-spiro[2.4]heptane]-5,6-dicarboxamide], the EC50 on human FPRL2 worked out at 64 nM; on human ALX receptor, 301 nM.
Turning to `O=C(NCCCN1CCCC1)[C@H]1[C@H](C(=O)Nc2ccc(Br)cc2)[C@@H]2C=C[C@H]1C21CC1` (racemic) [Example 30, (5R*)—N^5-(4-Bromophenyl)-(6R*)—N^6-(3-pyrrolidin-1-yl-propyl)-(4S*,7R*)-[4,7-ethenylene-spiro[2.4]heptane]-5,6-dicarboxamide], the EC50 on human FPRL2 is 405 nM; on human ALX receptor, 4.9 nM.
For `COc1cc(F)c(CNC(=O)[C@H]2[C@H](C(=O)NCCCCN3CCCC3)[C@H]3C=C[C@@H]2C32CC2)c(F)c1` (racemic) [Example 226, (5R*)—N^5-(2,6-Difluoro-4-methoxy-phenyl-methyl)-(6R*)—N^6-(4-pyrrolidin-1-yl-butyl)-(4S*,7R*)-[4,7-ethenylene-spiro[2.4]heptane]-5,6-dicarboxamide] the same measures were 356 nM and 912 nM.
For `O=C(NCCc1ccccn1)[C@H]1[C@H](C(=O)NCCc2ccc(Cl)cc2)[C@@H]2C=C[C@H]1C21CC1` [Example 389, (5R)—N^5-(2-(4-Chlorophenyl)ethyl)-(6R)—N^6-(2-(pyridin-2-yl)ethyl)-(4S,7R)-[4,7-ethenylene-spiro[2.4]heptane]-5,6-dicarboxamide] the same measures were 554 nM and above 25000 nM.
For `COc1ccc(CNC(=O)[C@H]2[C@H](C(=O)NCCCCN3CCCC3)[C@H]3C=C[C@@H]2C32CC2)c(F)c1F` (racemic) [Example 227, (5R*)—N^5-(2,3-Difluoro-4-methoxy-phenyl-methyl)-(6R*)—N^6-(4-pyrrolidin-1-yl-butyl)-(4S*,7R*)-[4,7-ethenylene-spiro[2.4]heptane]-5,6-dicarboxamide], the EC50 at human FPRL2 came out at 89 nM; at human ALX receptor, 290 nM.
On to `CC(C)(C)CCNC(=O)[C@H]1[C@H](C(=O)Nc2ccc(Br)cc2)[C@@H]2C=C[C@H]1C21CC1` (racemic) [Example 85, (5R*)—N^5-(4-Bromophenyl)-(6R*)—N^6-(3,3-dimethyl-butyl)-(4S*,7R*)-[4,7-ethenylene-spiro[2.4]heptane]-5,6-dicarboxamide], for which the values for the concentration giving a half-maximal response (EC50) at human FPRL2 and on human ALX receptor were 8300 nM and 146 nM, respectively.
`O=C(NC1CC1)[C@H]1[C@H](C(=O)Nc2ccc(Br)cc2)[C@@H]2C=C[C@H]1C21CC1` (racemic) [Example 73, (5R*)—N^5-(4-Bromophenyl)-(6R*)—N^6-(cyclopropyl)-(4S*,7R*)-[4,7-ethenylene-spiro[2.4]heptane]-5,6-dicarboxamide]: the figures for the EC50 on human FPRL2 and on human ALX receptor were 4610 nM and 63 nM, respectively.
In the case of `CN(C)CCNC(=O)[C@H]1[C@H](C(=O)NCCc2ccc(Cl)cc2)[C@@H]2C=C[C@H]1C21CC1` [Example 388, (5R)—N^5-(2-(4-Chlorophenyl)ethyl)-(6R)—N^6-(2-dimethylamino-ethyl)-(4S,7R)-[4,7-ethenylene-spiro[2.4]heptane]-5,6-dicarboxamide], the EC50 at human FPRL2 is 623 nM; on human ALX receptor it was above 25000 nM.
For the compound `COc1ccccc1CCNC(=O)[C@H]1[C@H](C(=O)NCCCCN2CCCC2)[C@H]2C=C[C@@H]1C21CC1` (racemic) [Example 158, (5R*)—N^5-(2-(2-Methoxy-phenyl)-ethyl)-(6R*)—N^6-(4-pyrrolidin-1-yl-butyl)-(4S*,7R*)-[4,7-ethenylene-spiro[2.4]heptane]-5,6-dicarboxamide], the concentration for a half-maximal effect (EC50) on human FPRL2 is 204 nM; at human ALX receptor, above 25000 nM.
As for `O=C(Nc1ccc(Br)cc1)C1C(C(=O)NC2CCNC2)C2C=CC1C21CC1` (mixture of isomers) [Example 9, (5R*)—N^5-(4-Bromophenyl)-(6R*)—N^6-(pyrrolidin-3-yl)-(4S*,7R*)-[4,7-ethenylene-spiro[2.4]heptane]-5,6-dicarboxamide], the EC50 on human FPRL2 was determined as 1510 nM; at human ALX receptor, 0.94 nM.
Consider `Cc1ccc(F)c(CNC(=O)[C@H]2[C@H](C(=O)NCCCCN3CCCC3)[C@H]3C=C[C@@H]2C32CC2)c1Cl` (racemic) [Example 373, (5R*)—N^5-(2-Chloro-6-fluoro-3-methylphenyl-methyl)-(6R*)—N^6-(4-pyrrolidino-butyl)-(4S*,7R*)-[4,7-ethenylene-spiro[2.4]heptane]-5,6-dicarboxamide], for which the EC50 on human FPRL2 was 478 nM; at human ALX receptor, above 25000 nM.
In the case of `O=C(NCCCCN1CCCC1)[C@H]1[C@H](C(=O)Nc2ncc(Br)s2)[C@@H]2C=C[C@H]1C21CC1` (racemic) [Example 120, (5R*)—N^5-(5-Bromo-thiazol-2-yl)-(6R*)—N^6-(4-pyrrolidin-1-yl-butyl)-(4S*,7R*)-[4,7-ethenylene-spiro[2.4]heptane]-5,6-dicarboxamide], the EC50 is 363 nM at human FPRL2 and 17 nM at human ALX receptor.
For `O=C(NCCCCN1CCCC1)[C@H]1[C@H](C(=O)NCc2cccc(OC(F)F)c2)[C@@H]2C=C[C@H]1C21CC1` (racemic) [Example 360, (5R*)—N^5-(3-Difluoromethoxyphenyl-methyl)-(6R*)—N^6-(4-pyrrolidino-butyl)-(4S*,7R*)-[4,7-ethenylene-spiro[2.4]heptane]-5,6-dicarboxamide] the same measures were 530 nM and 8700 nM.
In the case of `O=C(NCCCn1cncn1)[C@H]1[C@H](C(=O)Nc2ccc(Br)cc2)[C@@H]2C=C[C@H]1C21CC1` (racemic) [Example 55, (5R*)—N^5-(4-Bromophenyl)-(6R*)—N^6-(3-1H-[1,2,4]-triazol-1-yl-propyl)-(4S*,7R*)-[4,7-ethenylene-spiro[2.4]heptane]-5,6-dicarboxamide], the EC50 at human FPRL2 was determined as 6680 nM; on human ALX receptor it was 18 nM.
In the case of `O=C(NC1CCCNC1)[C@H]1[C@H](C(=O)Nc2ncc(Br)s2)[C@@H]2CC[C@H]1C21CC1` (stereo partly drawn) [Example 415, (5R)—N^5-(5-Bromothiazol-2-yl)-(6R)—N^6-(piperidin-3-yl)-(4S,7R)-[4,7-ethylene-spiro[2.4]heptane]-5,6-dicarboxamide], the EC50 amounted to 354 nM at human FPRL2 and 9.1 nM on human ALX receptor.
Turning to `O=C(NCCCCN1CCCC1)C1C(C(=O)NCc2ccc(Br)cc2)C2C=CC1C21CC1` (racemic) [Example 118, (5R*)—N^5-(4-Bromophenyl-methyl)-(6R*)—N^6-(4-pyrrolidin-1-yl-butyl)-(4S*,7R*)-[4,7-ethenylene-spiro[2.4]heptane]-5,6-dicarboxamide], the EC50 on human FPRL2 was 140 nM; on human ALX receptor, 47 nM.
The like results for `NCCCCCNC(=O)[C@H]1[C@H](C(=O)NCc2ccc(Br)cc2F)[C@@H]2C=C[C@H]1C21CC1` [Example 319, (5R)—N^5-(4-Bromo-2-fluorophenyl-methyl)-(6R)—N^6-(5-amino-pentyl)-(4S,7R)-[4,7-ethenylene-spiro[2.4]heptane]-5,6-dicarboxamide] were, in that order, 331 nM and 55 nM.
For the compound `O=C(NCCCCN1CCCC1)[C@H]1[C@H](C(=O)Nc2ccc(C(F)(F)F)cc2)[C@@H]2C=C[C@H]1C21CC1` (racemic) [Example 197, (5R*)—N^5-(4-Trifluoromethyl-phenyl)-(6R*)—N^6-(4-pyrrolidin-1-yl-butyl)-(4S*,7R*)-[4,7-ethenylene-spiro[2.4]heptane]-5,6-dicarboxamide], the EC50 stood at 105 nM on human FPRL2 and 5.4 nM on human ALX receptor.

As a reminder, the EC50 is the concentration giving half of the maximal effect.

Values taken from patent publication US8563714B2, “Bridged spiro [2.4] heptane derivatives as ALX receptor and/or FPRL2 agonists” (Actelion Pharmaceuticals Ltd., priority 2009, dated 2013).
